The values below come from patent US7011834B1, “Immunomodulating dimers” (The Board of Trustees of Leland Stanford Junior University, priority 1987, dated 2006).

The subject of one test is purified T cells. Nature of the test: Proliferation assay: purified T cells stimulated by immobilized anti-CD3, 3H-thymidine incorporation. The class given is cell-based, human. As for the experimental part:
Cells and Cell Culture. PBL were isolated from normal donors by centrifugation over Ficoll-Hypaque. In some cases, T cells were purified from this preparation using the method of Secrist et al. [J. Exp. Med. (1993) 178:2123]. Briefly, cells isolated over Ficoll-Hypaque were incubated for 1 hour in Petri dishes. Nonadherent cells were passed over a nylon wool column and the resulting population was >90% CD3+ by FACS analysis. CD8+CTL lines specific for HLA-A2, B7, B27, B48, or Cw4 were generated and maintained in long-term culture as previously described [Buxton et al., J. Exp. Med. (1992) 175:809; Wesley et al., Hum. Immunol. (1993) 36:149]. Jurkat E6-1 and the T cell receptor negative Jurkat, JRT3-T3.5, were obtained from the American Type Culture Collection (ATCC; Rockville, Md.). Other cell lines used included the EBV transformed B cell lines JY, MS, C1R, and 721.221; K562 and HEL, erythroleukemia cell lines; the T cell tumors Peer, Hut-78 and HSB; the Burkitt's lymphoma cell lines Daudi and SUP B17 [Wright et al., J. Exp. Med. (1989) 169:1557], and the NK-like cell line YT2C2. […]
Proliferation Assay. […] Plates were harvested on a PHD Cell Harvester 24 hours later and [^3H]-thymidine incorporation determined by scintillation counting.
Peptides were evaluated for effects on the proliferation of purified T cells stimulated by immobilized anti-CD3 antibody. […]
In general terms: Uptake of a labelled nucleoside into DNA is a usual measure of proliferation.

For test [1], the system named is CD8+CTL line specific for HLA-A2. Nature of the test: Cytotoxicity assay: inhibition of lysis by established CTL, 51Cr-labeled JY targets. Format: cell-based, human. The conditions noted are these: cell ratio 10:1, CTL line AJY.
The test system of test [2] is Lew specific CTL precursors in splenocytes. Kind of test: Limiting dilution assay for CTL precursors in splenocytes after in vivo peptide. Also noted: species or system rat. As to conditions: for [CTL precursor frequency]^−1: PVG rats, single iv 2 mg, Lew stimulators. As for the experimental part: The effect of peptides on CTL precursor frequencies in splenocytes was tested as follows. Limiting dilution analysis was carried out essentially as described (Moeller et al. 1993, supra; Skinner and Marbrook. J. Exp. Med. (1976) 143:1562). Briefly, spleens were removed from naive animals or from animals that had received an allograft a minimum of 60 days earlier and then teased into a single cell suspension. Responder cells were plated from 1000 to 40,000 cells per well (24 replicates per concentration) into round bottom microliter wells in RPMI 1640 supplemented with 10% fetal bovine serum (Hyclone, Logan, Utah), 2 mM L-glutamine, 5×10^−5M β-mercaptoethanol, 100 U/ml penicillin, 100 μg/ml streptomycin, 20% supernatant from Concanavalin A activated rat spleen cells, and 50 μM α-methyl mannoside. Then, 5×10^5 irradiated (2000 rads) stimulator cells were added to each well and plates were incubated in a humidified CO2 incubator. After 5 days, aliquots were removed and tested for lysis of ^51Cr-labeled Concanavalin A activated blasts. Aliquots of supernatant were counted in a gamma counter and CTL precursor frequency determined by linear regression (Skinner and Marbrook. 1976, supra). Wells were considered positive if specific release was >10%.
PVG (RT1^c) or ACI […] rats were treated with a single intravenous injection of saline or 2 mg of A2.75-84, B7.75-84, B2702.75-84, or RT1^a.75-84 peptide. Their spleens were removed on different days after peptide treatment, cultured under limiting dilution conditions for 5 days with irradiated (2000R) splenocytes from Lewis rats; i.e., Lew (RT1^1) stimulator cells, and assayed for lysis of ^51Cr-labeled Lew blasts. CTL precursor frequency was determined by linear regression analysis.

Take RENLRIALRY [B2702.75–84]: the “inhibition of proliferation of purified T cells stimulated by immobilized anti-CD3 antibody” value in the test on purified T cells is on record as “do not”. Also, the “% Specific Lysis” value in test [1] (peptide 25 μg/ml) was 60.9%; in test [1] (peptide 100 μg/ml) it was 43.7%; in test [1] (peptide 200 μg/ml) it was 33.1%. The “[CTL precursor frequency]^−1” value in test [2] (0 days after peptide injection) is recorded as 54,631; in test [2] (1 day after peptide injection) it was 54,631; in test [2] (7 days after peptide injection), 465,572; in test [2] (10 days after peptide injection), 468,071. In addition, the “precursor frequency of Lew specific cells in splenocytes” value in test [2] (treated on the day of splenectomy or 24 hours earlier, compared with approximately 1 in 55,000) is “The same frequency”.
